Data on two molecules can be found in patent US6534520B2, “Antiviral compounds” (priority 1997, dated 2003).

Structures are written as SMILES. In brackets after ≈: the same amount, converted by molar mass. A value given as a limit tells only on which side of the number the result lay.

The test system of data set [1] is Adenovirus. The experiment in a line: Antiviral activity against Adenovirus (CPE inhibition / neutral red). In kind it is cell-based.
The test system of data set [2] is HSV-1. The experiment in a line: Antiviral activity against HSV-1 (CPE inhibition / neutral red). In kind it is cell-based, herpes simplex virus type 1.
Data set [3] is described as follows: Cytotoxicity run with the Adenovirus test.
The nature of data set [4]: Cytotoxicity run with the RSV test.
Data set [5] deals with Influenza B. In words: microbe, parasite or virus in culture. In kind it is cell-based.
Data set [6] has as its system Influenza A. In words: microbe, parasite or virus in culture. In kind it is cell-based.
For data set [7], the system named is Parainfluenza. The experiment in a line: Antiviral activity against Parainfluenza (CPE inhibition / neutral red). In kind it is cell-based.
Data set [8] in a line: Cytotoxicity run with the Influenza B test. In kind it is cell-based. As to the method: (§1) Methods For Assay Of Cytotoxicity
(§2) In the CPE inhibition test, two wells of uninfected cells treated with each concentration of test Compound are run in parallel with the infected, treated wells. At the time CPE is determined microscopically, the toxicity control cells are also examined microscopically for any changes in cell appearance compared to normal control cells run in the same plate. These changes may be enlargement, granularity, cells with ragged edges, a filmy appearance, rounding, detachment from the surface of the well, or other changes. These changes are given a designation of T (100% toxic), PVH (partially toxic-very heavy-80%), PH (partially toxic-heavy-60%), P (partially toxic-40%), PS (partially toxic-slight-20%), or 0 (no toxicity-0%), conforming to the degree of cytotoxicity seen.
(§3) In the neutral red dye uptake phase of the antiviral test described above, the two toxicity control wells also receive neutral red and the degree of color intensity is determined spectrophotometrically. A neutral red CC50 (NRCC50) is subsequently determined.
(§4) C. ^3H Thymidine Uptake Assay
(§5) Flat bottom 96 well plates are plated with 5X10E3 Vero-34 cells/well and 1X10E4 Hs68 or Wi-38 cells/well respectively and incubated overnight at 37° C. and 5% CO2/air. After incubation, the supernatant medium is removed and replaced with test Compound dilutions in 2% DMEM (150 ul). The cells are then incubated 48 hours in a 5% CO2 incubator at 37° C.
(§6) 50 μl/well of 10 uCi/ml solution of [3H]-methyl thymidine (specific activity of approx. 2Ci/mmol) is added to the culture medium and incubated overnight (18 hours) in a 5% CO2 incubator at 37° C.
(§7) Cells are then collected onto a fiberglass filter (Printed Filtermat A 1450-421 Wallac) with a Tomtec cell harvester. Suspended cells are collected directly onto filter while for adherent cells, the medium is first removed, then the cells washed with PBS and trypsinized for 2-3 minutes (50 μl trypsin/well) before collecting.
(§8) Filters are dried for 1 hour at 37-40° C. and then placed into bags (1450-microbeta #1450-432 Wallac) with 4.5 ml of Betascint and counts obtained with Microbeta 1450 Wallac (protocol 1).
(§9) The percent of cell proliferation is determined by comparison to the control (no test Compound) and thereby establishing 50% inhibitory concentration is established.

Data set [9] in a line: Cytotoxicity run with the HSV-1 test.
Data set [10] concerns HSV-2. In words: Antiviral activity against HSV-2 (CPE inhibition / neutral red). The format is cell-based, herpes simplex virus type 2.
Data set [11] can be described thus: Cytotoxicity in PBMCs (anti-HIV tests). In kind it is cell-based. The conditions noted are these: human; PBMCs, HIVROJO.
Data set [12] has as its system Rhinovirus (RV). In words: Antiviral activity against Rhinovirus (CPE inhibition / neutral red). In kind it is cell-based. As to conditions: Rhinovirus.
Data set [13] relates to Respiratory Syncitial Virus (RSV). In words: Antiviral activity against RSV (CPE inhibition / neutral red). The format is cell-based.
Data set [14] has as its system HIVROJO. In words: Anti-HIV activity against HIVROJO in PBMCs. As to conditions: HIVROJO, PBMCs. The format is cell-based.
Data set [15] can be described thus: Cytotoxicity run with the Parainfluenza test.
For data set [16], the system named is HIVTEKI. In words: Anti-HIV activity against HIVTEKI in PBMCs. The conditions noted are these: Human immunodeficiency virus 1, PBMC, read-out: HIVTEKI (PBMCs) IC50.
Data set [17] can be described thus: Cytotoxicity run with the Rhinovirus test.
A short description of data set [18]: Cytotoxicity run with the Influenza A test. The format is cell-based. As to the method: as §1, §2, §3, §4, §5, §6, §7, §8, §9
A short description of data set [19]: Cytotoxicity run with the HSV-2 test.
The subject of data set [20] is uninfected cells.
Data set [21] deals with uninfected cells. The experiment in a line: Cytotoxicity run with the Adenovirus test. As to conditions: cytotoxicity, Adenovirus test.
In data set [22] the test system is uninfected cells. In words: Cytotoxicity run with the Influenza B test. The format is cell-based. As to the method: as §1, §2, §3, §4, §5, §6, §7, §8, §9
Data set [23] relates to uninfected cells. The source holds these as a separate data set.
Data set [24] concerns uninfected cells. This is another data set of the same source.
Data set [25] deals with PBMCs. The experiment in a line: Cytotoxicity in PBMCs (anti-HIV tests). In kind it is cell-based.
Data set [26] relates to uninfected cells. The source holds these as a separate data set.
The subject of data set [27] is uninfected cells. In words: Cytotoxicity run with the Parainfluenza test. The conditions noted are these: cytotoxicity, Parainfluenza test.
In data set [28] the test system is uninfected cells. In words: Cytotoxicity run with the Influenza A test. The format is cell-based. As to the method:
as §1, §2, §3, §4, §5, §6, §7, §8, §9

For `O=C(NCCc1ccccc1)C1=Cc2ccncc2CC1` [#67, 7,8-Dihydro-isoquinoline-6-carboxylic acid phenethyl-amide], the IC50 in [1] (unidentified adenovirus, read-out: ADENOVIRUS IC50) was > 100 µg/mL; in data set [2] (Human alphaherpesvirus 1, read-out: HSV-1 IC50), 16 µg/mL (≈ 57.5 µM); in [5] (Influenza B virus), > 100 µg/mL; in data set [6] (Influenza A virus, read-out: INFLUENZA A IC50), > 100 µg/mL; in data set [7] it was 100 µg/mL (≈ 359 µM); in [10] (Human alphaherpesvirus 2), 86 µg/mL (≈ 309 µM). Moreover, the IC50 in data set [12] (Enterovirus, read-out: RV IC50) was > 20 µg/mL; in data set [13] (human respiratory syncytial virus, read-out: RSV IC50) it was > 100 µg/mL; in [14] (Human immunodeficiency virus 1, PBMC, read-out: HIVROJO (PBMCs) IC50), 8.6 µg/mL (≈ 30.9 µM); in [16], 41.2 µg/mL (≈ 148 µM). Moreover, the CC50 in data set [3] is 30 µg/mL (≈ 108 µM); in [4] it was 30 µg/mL (≈ 108 µM); in data set [8] it was > 100 µg/mL; in data set [9], > 100 µg/mL; in data set [11], 74.7 µg/mL (≈ 268 µM); in data set [15], 30 µg/mL (≈ 108 µM). The CC50 is 40 µg/mL (≈ 144 µM) in [17], > 100 µg/mL in data set [18] and > 100 µg/mL in data set [19].
For `O=C(NCCc1c[nH]c2ccccc12)C1=Cc2ccncc2CC1` [#68], in data set [1] (Adenovirus), the ADENOVIRUS IC50 turned out to be 20 µg/mL. Further, the “HSV-1 IC50” value in data set [2] (HSV-1) is 0.72 µg/mL. Moreover, in data set [20], the “HSV-2 CC50” value came to 14 µg/mL. Further, the ADENOVIRUS CC50 in [21] came out at 30 µg/mL. For the same molecule, the INFLUENZA B IC50 in data set [5] (Influenza B) was 7.2 µg/mL. Also, the “INFLUENZA A IC50” value in [6] was 2.1 µg/mL. Also, the PARAINFLUENZA IC50 in data set [7] (Parainfluenza) is 50 µg/mL. This molecule also yielded an INFLUENZA B CC50 in data set [22] of 11 µg/mL. Also, the “RSV CC50” value in data set [23] came out at 20 µg/mL. Besides, the RV CC50 in data set [24] stood at 10 µg/mL. In addition, the “HSV-2 IC50” value in data set [10] (HSV-2) amounted to 0.96 µg/mL. Moreover, the “HIVROJO (PBMCs) CC50” value in data set [25] was 7.1 µg/mL. In addition, the RV IC50 in data set [12] was determined as 2 µg/mL. For the same molecule, in [13] (RSV), the “RSV IC50” value is 60 µg/mL. Also, in data set [26], the “HSV-1 CC50” value came to 12 µg/mL. In [14], the “HIVROJO (PBMCs) IC50” value turned out to be 2.9 µg/mL. In data set [27], this molecule displayed a PARAINFLUENZA CC50 of 25 µg/mL. The “INFLUENZA A CC50” value in [28] came out at 2.1 µg/mL.

Usually IC50 stands for the concentration at which inhibition is half-maximal. By CC50 is commonly meant the concentration that lowers cell viability or growth by half. Read a high CC50 as lower toxicity to the cells.
